# Test results taken from patent US8252832B2, “Kinesin inhibitors as cancer therapeutics” (Novartis AG, priority 2007, dated 2012).
# Experiments:
# U937 = test: CellTiter-Glo proliferation, 72 hours; assay type: cell-based; conditions: Homo sapiens, U-937; Leukemia, U937, 72 hours
# From the text: (§1) Cell lines used were as follows: HCT-116 (National Cancer Institute's DCTF Tumor Repository, catalog #NCI-502568, Rockville, Md.), HCT-15 (National Cancer Institute's DCTF Tumor Repository, catalog#NCI-502711, Rockville, Md. available from American Type Tissue Collection, catalog #CLL-225), KB-3-1 (available from DSMZ, Deutsche Sammlung von Mikroorganismen und Zellkulturen GmbH (German Collection of Microorganisms and Cell Cultures—catalog number ACC 158), KB-V1 (available from DSMZ—catalog number ACC 149), AGS (available from American Type Culture Collection, Manassas Va., catalog number CRL-1739™), N87 (available from American Type Culture Collection, Manassas Va., catalog number CRL-5822), Hel92.1.7 (available from American Type Culture Collection, Manassas Va., catalog number TIB 180), K562 (available from American Type Culture Collection, Manassas Va., catalog number CRL-243™), MV4; 11 (American Tissue Culture Collection, Manassas Va., catalog number CRL-9591) and U937 (available from American Type Culture Collection, Manassas Va., catalog number CRL-1593.2).
# (§2) Cells were plated in 96-well plates at densities of about 500 cells per well of a 96-well plate and allowed to grow for 24 hours. The cells were then treated with various concentrations of compounds for 72 hours. Then, 100 μl of CellTiter-Glo® reagent was added (Promega Corporation). CellTiter-Glo® is used in a homogeneous method of determining the number of viable cells using the single CellTiter-Glo® reagent to detect ATP (U.S. Pat. Nos. 6,602,677 and 7,241,584) (see Promega product catalog #G7570). Following the addition of the CellTiter-Glo® reagent, the cells were incubated in the dark for 30 minutes. The amount of luminescence was determined for each well using a Wallac Trilux plate reader, which correlates with the number of cells per well. The number of viable cells in the wells that receive only DMSO (0.5%) served as an indication of 0% inhibition, while wells without cells served as 100% inhibition of cell growth. […] This broad activity is consistent with a compound that is a mitotic inhibitor.
# MV4-11 = test: CellTiter-Glo proliferation, 72 hours; assay type: cell-based; conditions: Homo sapiens; Leukemia, MV4-11, 72 hours
# From the text: as §1, §2
# [1] = In vivo pharmacokinetic parameters (clearance, half-life, AUC)
smiles,measurement,setting,value
CC(C)(C)[C@H](c1nc(-c2cc(F)ccc2F)cn1Cc1ccccc1)N(CC[C@H](N)CF)C(=O)CO [Compound IIa],GI50,U937,100 pM
same,GI50,MV4-11,200 pM
same,AUC,[1],1930 ng·h/mL
same,half-life,[1],1.83 h
same,clearance,[1]; read-out: In vivo Clearance rate,41 mL/min/kg
